Measured values published in patent US20210220489A1, “AMYGDALAR NEURAL ENSEMBLE THAT ENCODES THE UNPL[…] PAIN” (The Board of Trustees of the Leland Stanford Junior …, priority 2020, published 2021).

Tests used:
BLA neurons = assay: Clozapine-N-oxide control experiments with BLA Ca2+ imaging (no hM4 expression); assay type: in vivo, mice; settings: CNO 10 mg/kg
Experimental: To check for possible alterations of neural activity in the presence of CNO alone (i.e., no hM4 expression), we conducted a shortened version of the main protocol (FIGS. 15D-15G). We injected mice with CNO (10 mg/kg), then placed them back in their home cage. After approximately 25 min, we mounted the miniature microscope on the mouse's head and placed them within the test chamber. They habituated for 10 min followed by adlibitum access to 10% sucrose solution delivered in the same manner as previously described. Mice then received a battery of stimuli: light touch (0.07-g von Frey filament), noxious pin (25G needle), or aloud noise (˜85 dB, same as previously described). We collected all subsequent data, processed Ca2+ imaging movies, and performed analysis similar to the main protocol used in FIG. 7.

[1] = tested on: neuropathic TRAP^hM4 mice; assay: Two-chamber thermal escape-avoidance (cold place aversion) assay; assay type: in vivo; settings: floor of one chamber cooled from 30° to 10° C.
Experimental: To evaluate neuropathic adaptive cool/cold avoidance behavior, mice with SNI freely explored a two-temperature choice chamber. The chamber was constructed from adjoining two thermal plates (Bioseb): one reference plate set at 30° C., and a test plate with the temperature adjusted to either 30, 25, 20, 15, or 10° C. for independent trials. The test plate temperature order was randomized for each trial within the day. The chamber (white opaque plastic with no distinguishing features and no divider, 30.48×15.24×15.24 cm) was fitted onto the conjoined plates. At Day 56 post SNI and at 30-min post CNO injection, we placed mice on the reference plate facing the back wall. Mice then freely explored the chamber for 5 min, while an overhead camera recorded the chamber position and locomotion. After each trial, the mouse was returned to the holding cylinder, while the test plate temperature was rapidly cooled or heated to the next randomly assigned temperature trial. This procedure was repeated until all temperature trials were collected (6 temperature trials total). Video files for each trial were later analyzed using automated tracking software (Ethovision, Noldus) for path tracking, time spent on the test plate, and number of entries onto the test plate.

noci-TRAP^hM4 mice = assay: Reflexive and affective-motivational pain behaviors after chemogenetic inhibition of the BLA nociceptive ensemble; assay type: in vivo; settings: CNO 10 mg/kg; mechanical and thermal noxious stimuli
Experimental: We habituated mice to a first testing room (room-A) for three consecutive days. Execution of all TRAP procedures occurred in Room-A. During these habituation days, no nociceptive stimuli were delivered, and no baseline thresholds were measured (i.e., mice were naïve to pain experience before the TRAP procedure). In room-A, we placed individual mice within red plastic cylinders (10.16-cm D), with a red lid, on a raised perforated, flat metal platform (60.96-cm H). […] This stimulus frequency was selected to closely match the protocols used in the microendoscope imaging experiments in which significant Ca^2+ transients were reliably detected in BLA Camk2a+ neurons. […]
To evaluate mechanical reflexive sensitivity, we used a logarithmically increasing set of 8 von Frey filaments (Stoelting), ranging in gram force from 0.07- to 6.0-g (93). […] Using the Up-Down statistical method, the 50% withdrawal mechanical threshold scores were calculated for each mouse and then averaged across the experimental groups. The response frequency was calculated as the number of positive responses out of 10 stimulations, delivered at 30-s intervals. […]

## C[N+]1([O-])CCN(C2=Nc3cc(Cl)ccc3Nc3ccccc32)CC1 [CNO, clozapine-N-oxide]
BLA neurons
  mean neural response to various stimuli: did not alter
[1]
  preference between cold and neutral temperature chambers: near-total indifference
noci-TRAP^hM4 mice
  attending and escape behaviors: significantly reduced
